Columns and labels:
[1] = Transcutaneous penetration / comparative release of active ingredient in horizontal glass Franz-type diffusion cells; type: in vitro ADME; conditions: 2 hrs; 0.5 g sample; mean of duplicates
Source text: The transcutaneous penetration and comparative release of active ingredient were compared using a horizontal glass Franz-type diffusion cells such as are described in R. Danids, (Skin Care Forum, Issue 37, August 2004, Cognis); S. Jung, (The University of California Irvine Undergraduate Research Journal, p. 25-26, Vol V, 2002, University of California Irvine); Guideline for Industry Non-sterile Semisolid Dosage Forms (SUPAC-SS CMC7), May 1997, U.S. Department of Health and Human Services FDA CDER. A standard cellophane dialysis membrane of MW cut off 6-8000 was used for the diffusion studies. The Franz cell receiving solution was composed of 50% v/v methanol/water. Cellophane membranes were mounted horizontally in the Franz cells. 0.5 g of sample were used for each test. The cell receptor was continuously stirred magnetically and maintained at 35+/−2° C. At the designated time 150 microliters aliquots were sampled from the receiving vessel of the Franz cells. 20 microliters were injected into HLPC. […]
0.5 g samples of compositions according to examples 2, 3 and 4 were compared over periods of 2, 4 and 7 hours with a prior art composition comprising 5% chlorhexidine in 62% ethyl alcohol. […] Column C, D, and E give the results for the actives in the respective formulations, both in mg and as a % of the sample quantity tested.

[2] = tested on: Pseudomonas aeruginosa ATTC 15442; conditions: triclosan alone, known; cited from earlier work

chlorhexidine penetrated, % of the sample quantity tested [1] [%] | Compound | triclosan penetrated, % of the sample quantity tested [1] [%] | effectiveness against Pseudomonas aeruginosa [2]
 | Oc1cc(Cl)ccc1Oc1ccc(Cl)cc1Cl [triclosan, 2,4,4-trichloro-2-hydroxy-diphenylether] | 0.24 | relatively ineffective
< 0.24 | [H]/N=C(\N/C(=N/[H])NCCCCCCNC(=N)NC(=N)Nc1ccc(Cl)cc1)Nc1ccc(Cl)cc1 [chlorhexidine] |  | 
